Like-named read-outs stand apart in the source and are kept apart here. A value given as a limit tells only on which side of the number the result lay.

The experiment has as its system NL-RLuc virus. Kind of experiment: Inhibition of HIV replication (NL-RLuc reporter virus in MT-2 cells, luciferase readout). Format: cell-based. Conditions: Human immunodeficiency virus 1, MT2, 120 h. An excerpt:
Inhibition of HIV replication: A recombinant NL-RLuc proviral clone was constructed in which a section of the nef gene from NL4-3 was replaced with the Renilla Luciferase gene. This virus is fully infectious and can undergo multiple cycles of replication in cell culture. In addition, the luciferous reporter provides a simple and easy method for quantitating the extent of virus growth and consequently, the antiviral activity of test compounds. The plasmid pNLRLuc contains the proviral NL-Rluc DNA cloned into pUC18 at the PvuII site. The NL-RLuc virus was prepared by transfection of 293T cells with the plasmid pNLRLuc. Transfections were performed using the LipofectAMINE PLUS kit from Invitrogen (Carlsbad, Calif.) according to the manufacturer and the virus generated was titered in MT-2 cells. For susceptibility analyses, the titrated virus was used to infect MT-2 cells in the presence of compound, and after 5 days of incubation, cells were processed and quantitated for virus growth by the amount of expressed luciferase. Assay media was RPMI 1640 supplemented with 10% heat inactivated fetal bovine serum (FBS), 100 units/ml penicillin G/100 units/ml streptomycin, 10 mM HEPES buffer pH 7.55 and 2 mM L-glutamine. The results from at least 2 experiments were used to calculate the EC50 values. Luciferase was quantitated using the Dual Luciferase kit from Promega (Madison, Wis.). Susceptibility of viruses to compounds was determined by incubation in the presence of serial dilutions of the compound. The 50% effective concentration (EC50) was calculated by using the exponential form of the median effect equation where (Fa)=1/[1+(ED50/drug conc.)^m] (Johnson V A, Byington R T. Infectivity Assay. In Techniques in HIV Research. ed. Aldovini A, Walker B D. 71-76. New York: Stockton Press.1990). Activity equal to A refers to a compound having an EC50≤100 nM, while B and C denote compounds having an EC50 between 100 nM and 1 uM (B) or >1 uM (C).

Regarding `Cc1nc(C)c([C@H](OC(C)(C)C)C(=O)O)c(N2CCC(C)(C)CC2)c1-c1ccc2c(c1)CCN(Cc1ccc(F)cc1)C2` [Compound 1, (S)-2-(tert-butoxy)-2-(4-(4,4-dimethylpiperidin-1-yl)-5-(2-(4-fluorobenzyl)-1,2,3,4-tetrahydroisoquinolin-6-yl)-2,6-dimethylpyridin-3-yl)acetic acid], the EC50 was less than 0.1 µM (read-out: Activity) and 0.006 µM (read-out: EC50 μM).
With `Cc1nc(C)c([C@H](OC(C)(C)C)C(=O)O)c(N2CCC(C)(C)CC2)c1-c1ccc2c(c1)CCN(Cc1cccc(C(F)(F)F)c1)C2` [Compound 2, (S)-2-(tert-butoxy)-2-(4-(4,4-dimethylpiperidin-1-yl)-2,6-dimethyl-5-(2-(3-(trifluoromethyl)benzyl)-1,2,3,4-tetrahydroisoquinolin-6-yl)pyridin-3-yl)acetic acid], where the note is “read-out: Activity”, the EC50 is less than 0.1 µM.
On the same count and under the same terms, the figure for `Cc1cccc(CN2CCc3cc(-c4c(C)nc(C)c([C@H](OC(C)(C)C)C(=O)O)c4N4CCC(C)(C)CC4)ccc3C2)c1` [Compound 3, (S)-2-(tert-butoxy)-2-(4-(4,4-dimethylpiperidin-1-yl)-2,6-dimethyl-5-(2-(3-methylbenzyl)-1,2,3,4-tetrahydroisoquinolin-6-yl)pyridin-3-yl)acetic acid] is less than 0.1 µM; for `Cc1ccccc1CN1CCc2cc(-c3c(C)nc(C)c([C@H](OC(C)(C)C)C(=O)O)c3N3CCC(C)(C)CC3)ccc2C1` [Compound 4, (S)-2-(tert-butoxy)-2-(4-(4,4-dimethylpiperidin-1-yl)-2,6-dimethyl-5-(2-(2-methylbenzyl)-1,2,3,4-tetrahydroisoquinolin-6-yl)pyridin-3-yl)acetic acid] it is less than 0.1 µM; for `Cc1ccc(CN2CCc3cc(-c4c(C)nc(C)c([C@H](OC(C)(C)C)C(=O)O)c4N4CCC(C)(C)CC4)ccc3C2)cc1` [Compound 5, (S)-2-(tert-butoxy)-2-(4-(4,4-dimethylpiperidin-1-yl)-2,6-dimethyl-5-(2-(4-methylbenzyl)-1,2,3,4-tetrahydroisoquinolin-6-yl)pyridin-3-yl)acetic acid] it is less than 0.1 µM.
For `COc1cccc(CN2CCc3cc(-c4c(C)nc(C)c([C@H](OC(C)(C)C)C(=O)O)c4N4CCC(C)(C)CC4)ccc3C2)c1` [Compound 6, (S)-2-(tert-butoxy)-2-(4-(4,4-dimethylpiperidin-1-yl)-5-(2-(3-methoxybenzyl)-1,2,3,4-tetrahydroisoquinolin-6-yl)-2,6-dimethylpyridin-3-yl)acetic acid], for the setting “read-out: Activity”, the EC50 is less than 0.1 µM.
With `Cc1nc(C)c([C@H](OC(C)(C)C)C(=O)O)c(N2CCC(C)(C)CC2)c1-c1ccc2c(c1)CCN(Cc1cccc(F)c1)C2` [Compound 7, (S)-2-(tert-butoxy)-2-(4-(4,4-dimethylpiperidin-1-yl)-5-(2-(3-fluorobenzyl)-1,2,3,4-tetrahydroisoquinolin-6-yl)-2,6-dimethylpyridin-3-yl)acetic acid], the EC50 by setting is: (read-out: Activity) less than 0.1 µM; (read-out: EC50 μM) 0.004 µM.
For `Cc1nc(C)c([C@H](OC(C)(C)C)C(=O)O)c(N2CCC(C)(C)CC2)c1-c1ccc2c(c1)CCN(Cc1ccc(C(F)(F)F)cc1)C2` [Compound 8, (S)-2-(tert-butoxy)-2-(4-(4,4-dimethylpiperidin-1-yl)-2,6-dimethyl-5-(2-(4-(trifluoromethyl)benzyl)-1,2,3,4-tetrahydroisoquinolin-6-yl)pyridin-3-yl)acetic acid], the EC50 (read-out: Activity) was less than 0.1 µM.
Same read-out and setting: to `Cc1nc(C)c([C@H](OC(C)(C)C)C(=O)O)c(N2CCC(C)(C)CC2)c1-c1ccc2c(c1)CCN(Cc1ccccc1F)C2` [Compound 9, (S)-2-(tert-butoxy)-2-(4-(4,4-dimethylpiperidin-1-yl)-5-(2-(2-fluorobenzyl)-1,2,3,4-tetrahydroisoquinolin-6-yl)-2,6-dimethylpyridin-3-yl)acetic acid] belongs less than 0.1 µM.
Regarding `Cc1nc(C)c([C@H](OC(C)(C)C)C(=O)O)c(N2CCC(C)(C)CC2)c1-c1ccc2c(c1)CCN(Cc1cccc(C(=O)O)c1)C2` [Compound 10, (S)-3-((6-(5-(tert-butoxy(carboxy)methyl)-4-(4,4-dimethylpiperidin-1-yl)-2,6-dimethylpyridin-3-yl)-3,4-dihydroisoquinolin-2(1H)-yl)methyl)benzoic acid], the EC50 runs as follows: (read-out: Activity) more than 1 µM; (read-out: EC50 μM) 1.48 µM.
As to `Cc1nc(C)c([C@H](OC(C)(C)C)C(=O)O)c(N2CCC(C)(C)CC2)c1-c1ccc2c(c1)CCN(Cc1cccc(-c3ccccc3)c1)C2` [Compound 11, (S)-2-(5-(2-([1,1′-biphenyl]-3-ylmethyl)-1,2,3,4-tetrahydroisoquinolin-6-yl)-4-(4,4-dimethylpiperidin-1-yl)-2,6-dimethylpyridin-3-yl)-2-(tert-butoxy)acetic acid], the EC50 (read-out: Activity) is less than 0.1 µM.
Still for that read-out and setting: to `Cc1nc(C)c([C@H](OC(C)(C)C)C(=O)O)c(N2CCC(C)(C)CC2)c1-c1ccc2c(c1)CCN(Cc1ccccc1C(F)(F)F)C2` [Compound 12, (S)-2-(tert-butoxy)-2-(4-(4,4-dimethylpiperidin-1-yl)-2,6-dimethyl-5-(2-(2-(trifluoromethyl)benzyl)-1,2,3,4-tetrahydroisoquinolin-6-yl)pyridin-3-yl)acetic acid] belongs less than 0.1 µM; to `Cc1nc(C)c([C@H](OC(C)(C)C)C(=O)O)c(N2CCC(C)(C)CC2)c1-c1ccc2c(c1)CCN(C(C)c1ccccc1)C2` (stereo partly drawn) [Compound 13, (2S)-2-(tert-butoxy)-2-(4-(4,4-dimethylpiperidin-1-yl)-2,6-dimethyl-5-(2-(1-phenylethyl)-1,2,3,4-tetrahydroisoquinolin-6-yl)pyridin-3-yl)acetic acid], less than 0.1 µM.
For `Cc1nc(C)c([C@H](OC(C)(C)C)C(=O)O)c(N2CCC(C)(C)CC2)c1-c1ccc2c(c1)CCN(Cc1ccc(-c3ccccc3)cc1)C2` [Compound 14, (S)-2-(5-(2-([1,1′-biphenyl]-4-ylmethyl)-1,2,3,4-tetrahydroisoquinolin-6-yl)-4-(4,4-dimethylpiperidin-1-yl)-2,6-dimethylpyridin-3-yl)-2-(tert-butoxy)acetic acid], the EC50 was less than 0.1 µM (read-out: Activity) and 0.034 µM (read-out: EC50 μM).
With `Cc1nc(C)c([C@H](OC(C)(C)C)C(=O)O)c(N2CCC(C)(C)CC2)c1-c1ccc2c(c1)CCN(Cc1cccc(C(F)(F)F)c1C)C2` [Compound 15, (S)-2-(tert-butoxy)-2-(4-(4,4-dimethylpiperidin-1-yl)-2,6-dimethyl-5-(2-(2-methyl-3-(trifluoromethyl)benzyl)-1,2,3,4-tetrahydroisoquinolin-6-yl)pyridin-3-yl)acetic acid], the EC50 (read-out: Activity) is less than 0.1 µM.
In the case of `Cc1ccc(CN2CCc3cc(-c4c(C)nc(C)c([C@H](OC(C)(C)C)C(=O)O)c4N4CCC(C)(C)CC4)ccc3C2)cc1C(F)(F)F` [Compound 16, (S)-2-(tert-butoxy)-2-(4-(4,4-dimethylpiperidin-1-yl)-2,6-dimethyl-5-(2-(4-methyl-3-(trifluoromethyl)benzyl)-1,2,3,4-tetrahydroisoquinolin-6-yl)pyridin-3-yl)acetic acid], the EC50 (read-out: Activity) is less than 0.1 µM.
Still for that read-out and setting: to `Cc1ccc(CN2CCc3cc(-c4c(C)nc(C)c([C@H](OC(C)(C)C)C(=O)O)c4N4CCC(C)(C)CC4)ccc3C2)cc1F` [Compound 18, (S)-2-(tert-butoxy)-2-(4-(4,4-dimethylpiperidin-1-yl)-5-(2-(3-fluoro-4-methylbenzyl)-1,2,3,4-tetrahydroisoquinolin-6-yl)-2,6-dimethylpyridin-3-yl)acetic acid] belongs less than 0.1 µM.
Still for that read-out and setting: the figure for `Cc1ccc(CN2CCc3cc(-c4c(C)nc(C)c([C@H](OC(C)(C)C)C(=O)O)c4N4CCC(C)(C)CC4)ccc3C2)c(C)c1` [Compound 19, (S)-2-(tert-butoxy)-2-(5-(2-(2,4-dimethylbenzyl)-1,2,3,4-tetrahydroisoquinolin-6-yl)-4-(4,4-dimethylpiperidin-1-yl)-2,6-dimethylpyridin-3-yl)acetic acid] is less than 0.1 µM.
The same measure, in the same setting: to `Cc1nc(C)c([C@H](OC(C)(C)C)C(=O)O)c(N2CCC(C)(C)CC2)c1-c1ccc2c(c1)CCN(Cc1ccc(F)cc1F)C2` [Compound 20, (S)-2-(tert-butoxy)-2-(5-(2-(2,4-difluorobenzyl)-1,2,3,4-tetrahydroisoquinolin-6-yl)-4-(4,4-dimethylpiperidin-1-yl)-2,6-dimethylpyridin-3-yl)acetic acid] belongs less than 0.1 µM; to `Cc1nc(C)c([C@H](OC(C)(C)C)C(=O)O)c(N2CCC(C)(C)CC2)c1-c1ccc2c(c1)CCN(Cc1cccc(F)c1F)C2` [Compound 21, (S)-2-(tert-butoxy)-2-(5-(2-(2,3-difluorobenzyl)-1,2,3,4-tetrahydroisoquinolin-6-yl)-4-(4,4-dimethylpiperidin-1-yl)-2,6-dimethylpyridin-3-yl)acetic acid], less than 0.1 µM.
